Assay results published in patent publication US10059669B2, “2-amino-3,5-difluoro-3,6-dimethyl-6-phenyl-3,4,5,6-tetrahydropyridines as BACE1 inhibitors for treating alzheimer's disease” (H. Lundbeck A/S, priority 2014, dated 2018).

Columns and labels:
P-gp (MDR1) = test: MDCK-MDR1 assay (permeability, efflux ratio); type: in vitro ADME; conditions: dog, Papp BA/Papp AB, 60-minute incubation, Pgp substrate when ≥2
Method: The permeability of the test compounds was assessed in MDCK-MDR1 cells that were cultured to confluency (4-6 days) in a 96 transwell plate. Test compounds were diluted with the transport buffer (HBSS+1% BSA) to a concentration of 0.5 μM and applied to the apical or basolateral side of the cell monolayer. Permeation of the test compounds from A to B direction or B to A direction was determined in triplicate over a 60-minute incubation time at 37° C. and 5% CO2 with a relative humidity of 95%. Test compounds were quantified by LC-MS/MS analysis based on the peaks area ratios of analyte/IS in both the receiver and donor wells of the transwell plate.
The apparent permeability coefficient Papp (cm/s) was calculated using the equation: Papp=(dCr/dt)×Vr/(A×C0)
Where dCr/dt is the cumulative concentration of compound in the receiver chamber as a function of time (M/s); Vr is the solution volume in the receiver chamber (0.05 mL on the apical side; 0.25 mL on the basolateral side); A is the surface area for the transport, i.e. 0.0804 cm^2 for the area of the monolayer; C0 is the initial concentration in the donor chamber (VIM).
Compounds are classified Pgp substrates when efflux ratio (Papp BA/Papp AB) is ≥2.

BACE1 [1] = biological target: T1, BACE1 (Homo sapiens (Human), UniProt P56817); test: BACE1 binding assay (SPA-based radioligand binding); conditions: pH 4.5, 10 nM radioligand, Ki calculated from IC50
T1 sequence (P56817 46-501): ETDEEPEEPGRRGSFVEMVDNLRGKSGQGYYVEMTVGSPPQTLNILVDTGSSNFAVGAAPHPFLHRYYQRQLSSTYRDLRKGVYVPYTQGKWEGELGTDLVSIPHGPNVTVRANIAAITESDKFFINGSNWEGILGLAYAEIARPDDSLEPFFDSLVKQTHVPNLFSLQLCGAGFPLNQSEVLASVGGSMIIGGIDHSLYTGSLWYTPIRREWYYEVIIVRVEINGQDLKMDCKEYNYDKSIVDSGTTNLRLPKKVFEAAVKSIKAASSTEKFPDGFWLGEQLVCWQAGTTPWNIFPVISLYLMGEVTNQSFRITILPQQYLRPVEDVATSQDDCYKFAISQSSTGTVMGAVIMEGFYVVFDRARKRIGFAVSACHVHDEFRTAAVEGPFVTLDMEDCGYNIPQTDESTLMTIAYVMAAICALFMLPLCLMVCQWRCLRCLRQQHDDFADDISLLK
Method: The binding assay was performed as SPA-based assay using a biotinylated form of human BACE1 recombinantly expressed and subsequently purified from Freestyle HEK293 cells. The binding assay was run in a 50 mM sodium acetate buffer, pH 4.5 containing 50 mM NaCl and 0.03% Tween-20 in white clear bottom 384 plates (Corning #3653). 10 nM (final concentration) radioligand ([^3H]—N-((1S,2R)-1-benzyl-3-cyclopropylamino-2-hydroxy-propyl)-5-(methanesulfonyl-methyl-amino)-N—((R)-1-phenyl-ethyl)-isophthalamide) (TRQ11569 purchased from GE Healthcare) was mixed with test compound at a given concentration, 6 nM (final concentration) human BACE1 and 25 μg Streptavidin coated PVT core SPA beads (RPNQ0007, GE Healthcare Life Sciences) in a total volume of 40 μl. Several concentrations of each test compound were tested in the assay for IC50 determination. The plates were incubated for one hour at room temperature and counted in a Wallac Trilux counter. Total and non-specific binding were determined using buffer and 1 μM (final concentration) of the high affinity BACE1 reference inhibitor (S)-6-[3-chloro-5-(5-prop-1-ynyl-pyridin-3-yl)-thiophen-2-yl]-2-imino-3,6-dimethyl-tetrahydro-pyrimidin-4-one, respectively. For each test compound, a IC50 value (the concentration mediating 50% inhibition of the specific binding of the radioligand) was determined from concentration-response curve and used to calculate the Ki from the equation Ki=IC50/(1+L/Kd), where L and Kd are the final concentration of the radioligand used in the assay and the dissociation constant of the radioligand, respectively. The Kd of the radioligand was determined from saturation binding experiments.

BACE1 [2] = biological target: T1, BACE1; test: BACE1 efficacy assay (FRET-based, commercial BACE1 kit); type: biochemical; conditions: 10 μM test compound
Method: The efficacy assay was performed as a FRET-based assay using a commercially available BACE1 kit (Life Technologies, P2985). 2 μl test compound at 10 μM (final concentration) and 15 μl BACE1 enzyme from the kit (final concentration 3 nM) were preincubated for 15 minutes at room temperature before addition of 15 μl of substrate from the kit (250 nM final concentration) and incubated for additional 90 minutes at room temperature. The assay plate was subsequently read in a Pherastar (Ex540/Em590). The enzyme activity observed in presence of test compound were normalized to the enzyme activity observed in presence of buffer and 10 μM (final concentration) of the high affinity BACE1 reference inhibitor (S)-6-[3-Chloro-5-(5-prop-1-ynyl-pyridin-3-yl)-thiophen-2-yl]-2-imino-3,6-dimethyl-tetra-hydropyrimidin-4-one, respectively. The efficacy of the test compounds was evaluated at 10 μM (final concentration) and defined as the percent inhibition of the enzyme activity using the equation % inhibition=100%−normalized enzyme activity in percent.

| efflux ratio at 60 min, 0.5 μM (P-gp (MDR1)) | Ki (BACE1 [1]) [nM] | inhibition at 10 µM (BACE1 [2]) [%] | Structure (SMILES) |
| --- | --- | --- | --- |
| 1.09 | 30 | 103 | C[C@]1(F)C[C@H](F)[C@@](C)(c2cc(NC(=O)c3ccc(F)cn3)ccc2F)N=C1N [Compound 1, N-(3-((2R,3S,5S)-6-Amino-3,5-difluoro-2,5-dimethyl-2,3,4,5-tetrahydropyridin-2-yl)-4-fluorophenyl)-5-fluoropicolinamide] |
| 0.79 | 26 | 99 | COc1cnc(C(=O)Nc2ccc(F)c([C@@]3(C)N=C(N)[C@@](C)(F)C[C@@H]3F)c2)cn1 [Compound 2, N-(3-((2R,3S,5S)-6-amino-3,5-difluoro-2,5-dimethyl-2,3,4,5-tetrahydropyridin-2-yl)-4-fluorophenyl)-5-methoxypyrazine-2-carboxamide] |
| 1.17 | 98 | 101 | C[C@@]1(F)C[C@H](F)[C@@](C)(c2cc(NC(=O)c3ccc(F)cn3)ccc2F)N=C1N [Compound 4, N-(3-((2R,3S,5R)-6-amino-3,5-difluoro-2,5-dimethyl-2,3,4,5-tetrahydropyridin-2-yl)-4-fluorophenyl)-5-fluoropicolinamide] |
| 1.53 | 51 |  | COc1cnc(C(=O)Nc2ccc(F)c([C@@]3(C)N=C(N)[C@](C)(F)C[C@@H]3F)c2)cn1 [Compound 5, N-(3-((2R,3S,5R)-6-amino-3,5-difluoro-2,5-dimethyl-2,3,4,5-tetrahydropyridin-2-yl)-4-fluorophenyl)-5-methoxypyrazine-2-carboxamide] |
| 1.1 | 58 | 101 | Cc1nc(C(=O)Nc2ccc(F)c([C@@]3(C)N=C(N)[C@](C)(F)C[C@@H]3F)c2)co1 [Compound 6, N-(3-((2R,3S,5R)-6-amino-3,5-difluoro-2,5-dimethyl-2,3,4,5-tetrahydropyridin-2-yl)-4-fluorophenyl)-2-methyloxazole-4-carboxamide] |
| 5.67 | 39 | 102 | COc1ccc(C(=O)Nc2ccc(F)c([C@@]3(C)N=C(N)[C@](C)(F)C[C@@H]3F)c2)nc1 [Compound 7, N-(3-((2R,3S,5R)-6-amino-3,5-difluoro-2,5-dimethyl-2,3,4,5-tetrahydropyridin-2-yl)-4-fluorophenyl)-5-methoxypicolinamide] |
| 0.95 | 58 | 100 | [2H]C([2H])([2H])Oc1ccc(C(=O)Nc2ccc(F)c([C@@]3(C)N=C(N)[C@](C)(F)C[C@@H]3F)c2)nc1 [Compound 8, N-(3-((2R,3S,5R)-6-amino-3,5-difluoro-2,5-dimethyl-2,3,4,5-tetrahydropyridin-2-yl)-4-fluorophenyl)-5-(methoxy-d3)picolinamide] |
| 1.31 | 36 | 109 | C[C@@]1(F)C[C@H](F)[C@@](C)(c2cc(NC(=O)c3ccc(Cl)cn3)ccc2F)N=C1N [Compound 9, N-(3-((2R,3S,5R)-6-amino-3,5-difluoro-2,5-dimethyl-2,3,4,5-tetrahydropyridin-2-yl)-4-fluorophenyl)-5-chloropicolinamide] |
|  | 820 | 115 | Cn1ccnc1C(=O)Nc1ccc(F)c([C@@]2(C)N=C(N)[C@](C)(F)C[C@@H]2F)c1 [Compound 10, N-(3-((2R,3S,5R)-6-amino-3,5-difluoro-2,5-dimethyl-2,3,4,5-tetrahydropyridin-2-yl)-4-fluorophenyl)-1-methyl-1H-imidazole-2-carboxamide] |
|  | 190 | 104 | C[C@@]1(F)C[C@H](F)[C@@](C)(c2cc(NC(=O)c3cnc(C(F)(F)F)cn3)ccc2F)N=C1N [Compound 11, N-(3-((2R,3S,5R)-6-amino-3,5-difluoro-2,5-dimethyl-2,3,4,5-tetrahydropyridin-2-yl)-4-fluorophenyl)-5-(trifluoromethyl)pyrazine-2-carboxamide] |
|  | 99 | 118 | Cc1csc(C(=O)Nc2ccc(F)c([C@@]3(C)N=C(N)[C@](C)(F)C[C@@H]3F)c2)n1 [Compound 12, N-(3-((2R,3S,5R)-6-amino-3,5-difluoro-2,5-dimethyl-2,3,4,5-tetrahydropyridin-2-yl)-4-fluorophenyl)-4-methylthiazole-2-carboxamide] |
| 11.7 | 62 | 108 | C[C@@]1(F)C[C@H](F)[C@@](C)(c2cc(NC(=O)c3coc(C(F)F)n3)ccc2F)N=C1N [Compound 13, N-(3-((2R,3S,5R)-6-amino-3,5-difluoro-2,5-dimethyl-2,3,4,5-tetrahydropyridin-2-yl)-4-fluorophenyl)-2-(difluoromethyl)oxazole-4-carboxamide] |
| 15.8 | 45 | 112 | C[C@@]1(F)C[C@H](F)[C@@](C)(c2cc(NC(=O)c3ccn(C(F)F)n3)ccc2F)N=C1N [Compound 14, N-(3-((2R,3S,5R)-6-amino-3,5-difluoro-2,5-dimethyl-2,3,4,5-tetrahydropyridin-2-yl)-4-fluorophenyl)-1-(difluoromethyl)-1H-pyrazole-3-carboxamide] |
| 2.07 | 100 | 108 | C[C@@]1(F)C[C@H](F)[C@@](C)(c2cc(NC(=O)c3cnc(C(F)F)cn3)ccc2F)N=C1N [Compound 15, N-(3-((2R,3S,5R)-6-amino-3,5-difluoro-2,5-dimethyl-2,3,4,5-tetrahydropyridin-2-yl)-4-fluorophenyl)-5-(difluoromethyl)pyrazine-2-carboxamide] |
| 1.6 | 220 | 103 | C[C@@]1(F)C[C@H](F)[C@@](C)(c2cc(NC(=O)c3ccc(Cl)cc3)ccc2F)N=C1N [Compound 16, N-(3-((2R,3S,5R)-6-amino-3,5-difluoro-2,5-dimethyl-2,3,4,5-tetrahydropyridin-2-yl)-4-fluorophenyl)-4-chlorobenzamide] |
| 0.45 | 39 |  | C[C@@]1(F)C[C@H](F)[C@@](C)(c2cc(NC(=O)c3ccc(C#N)cn3)ccc2F)N=C1N [Compound 17, N-(3-((2R,3S,5R)-6-amino-3,5-difluoro-2,5-dimethyl-2,3,4,5-tetrahydropyridin-2-yl)-4-fluorophenyl)-5-cyanopicolinamide] |
| 1.24 | 6.8 | 101 | [2H]C([2H])([2H])Oc1ccc(C(=O)Nc2cc(F)c(F)c([C@@]3(C)N=C(N)[C@](C)(F)C[C@@H]3F)c2)nc1 [Compound 18, N-(3-((2R,3S,5R)-6-amino-3,5-difluoro-2,5-dimethyl-2,3,4,5-tetrahydropyridin-2-yl)-4,5-difluorophenyl)-5-(methoxy-d3)picolinamide] |
|  | 4.3 | 103 | C[C@]1(F)C[C@H](F)[C@@](C)(c2cc(NC(=O)c3ccc(Br)cn3)ccc2F)N=C1N [Compound 24, N-(3-((2R,3S,5S)-6-amino-3,5-difluoro-2,5-dimethyl-2,3,4,5-tetrahydropyridin-2-yl)-4-fluorophenyl)-5-bromopicolinamide] |
